The text below walks through data of PMC6706161, “A surface plasmon resonance-based method for monitoring interactions between G protein-coupled receptors and interacting proteins” (Journal of Biological Methods, 2016).

No end group written: not given here.

The term Kd denotes the constant that tells how readily two partners part at equilibrium.

The target of the assay is T1, S100B (Bos taurus, UniProt P02638).
T1 construct: S100B, purified from bovine brain; purchased Merck Millipore 559290; host or cells: bovine brain (tissue-purified)
T1 sequence (P02638 2-92 limits assumed): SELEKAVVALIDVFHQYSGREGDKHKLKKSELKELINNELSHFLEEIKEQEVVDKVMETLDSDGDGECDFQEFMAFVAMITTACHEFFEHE
In words: SPR (Biacore 3000) steady-state binding of S100B to immobilized peptide h5-HT7_IC3. Conditions: 95% CI [3.93, 6.71], peptide amine-coupled to CM5 chip (about 1200 RU), mock-immobilized reference surface, analyte S100B purified from bovine brain, 0.38 to 12 µM (two experiments) and 1.25 to 40 µM (third), duplicates, running buffer 10 mM HEPES, 150 mM NaCl, 4 mM CaCl2, 0.005% Tween-20, pH 7.5, 25 °C, one-site binding model, three experiments, read-out: Kd (dissociation constant, affinity). An excerpt:
• Custom peptides (> 95% pure) can be obtained from a number of commercial sources. In our hands, peptides from Selleck Chemicals (Houston, TX) have worked well. • S100B, purified from bovine brain (Cat. # 559290; Merck Millipore, Darmstadt, Germany) • Sensor Chip CM5 (single: Cat. # BR-1003-99; pack of three chips: Cat. # BR-1000-12; GE Healthcare) • Plastic Vials, Ø 7 mm; pack of 1000 vials (Cat. # BR-1002-12; GE Healthcare) • Rubber Caps, type 3; pack of 600 caps (Cat. # BR-1005-02; GE Healthcare) • Immobilization buffers: 10 mM sodium acetate, pH 4.0 (Cat. # BR-1003-49) and pH 4.5 (Cat. # BR-1003-50; GE Healthcare); 1 × 50 ml each • HBS-EP (Cat. # BR100188, 6 x 200 ml; GE Healthcare) • NaOH (Cat. # S8045; Sigma-Aldrich, Stockholm, Sweden) • DMSO (Cat. # D2650; Sigma-Aldrich) • Amine Coupling Kit (contains EDC, NHS and 1.0 M ethanolamine-HCl pH 8.5; Cat. # BR100050; GE Healthcare) • HEPES (Cat. # H3375; Sigma-Aldrich) • NaCl (Cat. # S7653; Sigma-Aldrich) • CaCl2 · 2H2O (Cat. # C8106; Sigma-Aldrich) • Tween-20 (Cat. # P1379; Sigma-Aldrich) • EDTA disodium salt (Cat. # E5134; Sigma-Aldrich) • Syringe filters, 0.2 µm pore size (Cat. # 83.1826.001; Sarstedt, Helsingborg, Sweden) • Bottle top filtration unit, 0.45 µm pore size (Cat. # 83.1823.100; Sarstedt)
Running buffer with Ca2+: 10 mM HEPES, 150 mM NaCl, 4 mM CaCl2, 0.005% Tween-20; pH 7.5. Store at 4 °C between experiments. […]
For orientation: In SPR one partner is held on a chip, and binding of the other changes the refractive index at the surface.

In the case of KFPGFPRVEPDSVIALNGIV [h5-HT7_IC3], the dissociation constant Kd worked out at 5.32 µM.
